Laboratory results taken from patent US20260198493A1, “HYDRAZIDE COMPOUND AND AGRICULTURAL/HORTICULTURAL FUNGICIDE” (Nippon Soda Co., Ltd., priority 2022, published 2026).

Assays:
Glomerella cingulata = assay: Fungicidal effect test against fungi causing grape ripe rot disease; conditions: Colletotrichum gloeosporioides, 72 h, read-out: growth inhibition ratio
Botrytis cinerea [1] = assay type: cell-based; conditions: 120 h, 25 ppm by volume, Vogel medium, 20° C., five days, dark, read-out: growth inhibition ratio
Colletotrichum acutatum = assay: Fungicidal effect test against fungi causing apple anthracnose; conditions: 96 h, read-out: growth inhibition ratio
Botrytis cinerea [2] = assay: Control test of cucumber gray mold (sprayed young cucumber seedlings); assay type: in vivo; conditions: 96 h, four days after inoculation; for pest or weed control at 25 ppm: 25 ppm by mass spray; for pest or weed control at 125 ppm: 125 ppm by mass spray
Procedure: Then, the drug liquid was sprayed onto young cucumber seedlings cultivated in a nursery pot (variety “Jihai”-based, cotyledon stage), and then air-dried. […] They were left still in a moist room at 20° C. Four days after inoculation, leaves of the young cucumber seedlings were visually observed, and the control value was calculated from the lesion area ratio in accordance with the following equation. [formula]

COC(=O)N(Cc1ccc(OC)cc1C)NC(=O)c1nc(C)nnc1Oc1cccc(C2CC2)c1F [b-130]
≥ 75%: inhibition of growth at 25 ppm (Glomerella cingulata) | inhibition of growth at 25 ppm (Botrytis cinerea [1]) | inhibition of growth at 25 ppm (Colletotrichum acutatum) | pest or weed control at 25 ppm (Botrytis cinerea [2]) | pest or weed control at 125 ppm (Botrytis cinerea [2])

COC(=O)N(Cc1ccc(C)cc1C)NC(=O)c1c(Oc2cccc(C3CC3)c2)cnn(C(C)C)c1=O [b-224]
≥ 75%: inhibition of growth at 25 ppm (Glomerella cingulata) | inhibition of growth at 25 ppm (Botrytis cinerea [1]) | inhibition of growth at 25 ppm (Colletotrichum acutatum) | pest or weed control at 125 ppm (Botrytis cinerea [2])

COC(=O)N(Cc1ccc(OC)cc1C)NC(=O)c1nc(C)ncc1Oc1cccc(C2CC2)c1F [b-105]
≥ 75%: inhibition of growth at 25 ppm (Glomerella cingulata) | inhibition of growth at 25 ppm (Botrytis cinerea [1]) | inhibition of growth at 25 ppm (Colletotrichum acutatum) | pest or weed control at 25 ppm (Botrytis cinerea [2])

COC(=O)N(Cc1ccc(C)cc1C)NC(=O)c1nc(C)nnc1Oc1cccc(C2CC2)c1F [b-115]
≥ 75%: inhibition of growth at 25 ppm (Glomerella cingulata) | inhibition of growth at 25 ppm (Botrytis cinerea [1]) | inhibition of growth at 25 ppm (Colletotrichum acutatum) | pest or weed control at 25 ppm (Botrytis cinerea [2])

CC(=O)N(Cc1ccc(C)cc1C)NC(=O)c1nc(C)ncc1Oc1cccc(C2CC2)c1F [b-64]
≥ 75%: inhibition of growth at 25 ppm (Glomerella cingulata) | inhibition of growth at 25 ppm (Botrytis cinerea [1]) | inhibition of growth at 25 ppm (Colletotrichum acutatum) | pest or weed control at 125 ppm (Botrytis cinerea [2])

COC(=O)N(Cc1ccc(C)cc1C)NC(=S)c1cc(C)nnc1Oc1cccc(C2CC2)c1F [b-59, Methyl 2-(3-(3-cyclopropyl-2-fluorophenoxy)-6-methylpyridazine-4-carbonothioyl)-1-(2,4-dimethylbenzyl)hydrazine-1-carboxylate]
≥ 75%: inhibition of growth at 25 ppm (Glomerella cingulata) | inhibition of growth at 25 ppm (Botrytis cinerea [1]) | inhibition of growth at 25 ppm (Colletotrichum acutatum) | pest or weed control at 125 ppm (Botrytis cinerea [2])

Cc1ccc(CN(NC(=O)c2cc(C)nnc2Oc2cccc(C3CC3)c2F)C(=O)OCC(F)F)c(C)c1 [b-197]
≥ 75%: inhibition of growth at 25 ppm (Glomerella cingulata) | inhibition of growth at 25 ppm (Botrytis cinerea [1]) | inhibition of growth at 25 ppm (Colletotrichum acutatum) | pest or weed control at 25 ppm (Botrytis cinerea [2]) | pest or weed control at 125 ppm (Botrytis cinerea [2])

CSC(=O)N(Cc1ccc(C)cc1C)NC(=O)c1cc(C)nnc1Oc1cccc(C2CC2)c1F [b-166, S-methyl 2-(3-(3-cyclopropyl-2-fluorophenoxy)-6-methylpyridazine-4-carbonyl)-1-(2,4-dimethylbenzyl)hydrazine-1-carbothioate]
≥ 75%: inhibition of growth at 25 ppm (Glomerella cingulata) | inhibition of growth at 25 ppm (Botrytis cinerea [1]) | inhibition of growth at 25 ppm (Colletotrichum acutatum)

COC(=O)N(Cc1ccc(OC)cc1C)NC(=O)c1c(Oc2cccc(C3CC3)c2)cnn(C(C)C)c1=O [b-225]
≥ 75%: inhibition of growth at 25 ppm (Glomerella cingulata) | inhibition of growth at 25 ppm (Botrytis cinerea [1]) | inhibition of growth at 25 ppm (Colletotrichum acutatum)

COC(=O)C(=O)N(Cc1ccc(C)cc1C)NC(=O)c1cc(C)nnc1Oc1cccc(C2CC2)c1F [b-82]
≥ 75%: inhibition of growth at 25 ppm (Glomerella cingulata) | inhibition of growth at 25 ppm (Botrytis cinerea [1]) | inhibition of growth at 25 ppm (Colletotrichum acutatum)

COC(=O)N(Cc1sc(Cl)nc1Cl)NC(=O)c1cc(C)nnc1Oc1cccc(C2CC2)c1F [b-120]
≥ 75%: inhibition of growth at 25 ppm (Glomerella cingulata) | inhibition of growth at 25 ppm (Botrytis cinerea [1]) | inhibition of growth at 25 ppm (Colletotrichum acutatum)

COC(=O)N(Cc1ccc(C)cc1C)NC(=O)c1cnncc1Oc1cccc(C2CC2)c1F [b-142, Methyl 2-(5-(3-cyclopropyl-2-fluorophenoxy)pyridazine-4-carbonyl)-1-(2,4-dimethylbenzyl)hydrazine-1-carboxylate]
≥ 75%: inhibition of growth at 25 ppm (Glomerella cingulata) | inhibition of growth at 25 ppm (Botrytis cinerea [1]) | inhibition of growth at 25 ppm (Colletotrichum acutatum)

COC(=O)N(Cc1ccc(C)cc1C)NC(=NO)c1cc(C)nnc1Oc1cccc(C2CC2)c1F [b-63]
≥ 75%: inhibition of growth at 25 ppm (Glomerella cingulata) | inhibition of growth at 25 ppm (Botrytis cinerea [1]) | inhibition of growth at 25 ppm (Colletotrichum acutatum)

COC(=O)N(Cc1ccc(C)cc1C)N(C)C(=O)c1cc(C)nnc1Oc1cccc(C2CC2)c1F [b-195]
≥ 75%: inhibition of growth at 25 ppm (Glomerella cingulata) | inhibition of growth at 25 ppm (Botrytis cinerea [1]) | inhibition of growth at 25 ppm (Colletotrichum acutatum)

CC(=O)N(Cc1ccc(C)cc1C)NC(=O)c1c(Oc2cccc(C3CC3)c2F)nnc(Cl)c1C [b-10]
≥ 75%: inhibition of growth at 25 ppm (Glomerella cingulata) | inhibition of growth at 25 ppm (Botrytis cinerea [1]) | inhibition of growth at 25 ppm (Colletotrichum acutatum) | pest or weed control at 125 ppm (Botrytis cinerea [2])

COC(=O)N(Cc1sc(C)cc1C)NC(=O)c1cc(C)nnc1Oc1cccc(C2CC2)c1F [b-122, Methyl 2-(3-(3-cyclopropyl-2-fluorophenoxy)-6-methylpyridazine-4-carbonyl)-1-((3,5-dimethylthiophen-2-yl)methyl)hydrazine-1-carboxylate]
≥ 75%: inhibition of growth at 25 ppm (Glomerella cingulata) | inhibition of growth at 25 ppm (Botrytis cinerea [1]) | inhibition of growth at 25 ppm (Colletotrichum acutatum) | pest or weed control at 125 ppm (Botrytis cinerea [2])

COC(=O)N(Cc1ccc(C)cc1C)NC(=O)c1cc(C)nnc1Oc1cccc(OC(F)(F)F)c1 [b-133]
≥ 75%: inhibition of growth at 25 ppm (Glomerella cingulata) | inhibition of growth at 25 ppm (Botrytis cinerea [1]) | inhibition of growth at 25 ppm (Colletotrichum acutatum)

Cc1ccc(CN(C)NC(=O)c2cc(C)nnc2Oc2cccc(C3CC3)c2F)c(C)c1 [b-2]
≥ 75%: inhibition of growth at 25 ppm (Glomerella cingulata) | inhibition of growth at 25 ppm (Botrytis cinerea [1]) | inhibition of growth at 25 ppm (Colletotrichum acutatum)

Cc1ccc(CN(NC(=O)c2cc(C)ncc2Oc2cccc(C3CC3)c2F)C(=O)N(C)C)c(C)c1 [b-48]
≥ 75%: inhibition of growth at 25 ppm (Glomerella cingulata) | inhibition of growth at 25 ppm (Botrytis cinerea [1]) | inhibition of growth at 25 ppm (Colletotrichum acutatum)

Cc1ccc(CN(NC(=O)c2cc(C)nnc2Oc2cccc(C3CC3)c2F)C(=O)c2cnn(C)c2)c(C)c1 [b-39]
≥ 75%: inhibition of growth at 25 ppm (Glomerella cingulata) | inhibition of growth at 25 ppm (Botrytis cinerea [1]) | inhibition of growth at 25 ppm (Colletotrichum acutatum)

COC(=O)N(Cc1ccc(C)cc1C)NC(=O)c1cc(C)nnc1Oc1ccc(C2CC2)cc1 [b-54]
≥ 75%: inhibition of growth at 25 ppm (Glomerella cingulata) | inhibition of growth at 25 ppm (Botrytis cinerea [1]) | inhibition of growth at 25 ppm (Colletotrichum acutatum)

COC(=O)N(NC(=O)c1cc(C)nnc1Oc1cccc(C2CC2)c1F)C(C)c1ccc(C)cc1C (stereo not drawn) [b-72]
≥ 75%: inhibition of growth at 25 ppm (Glomerella cingulata) | inhibition of growth at 25 ppm (Botrytis cinerea [1]) | inhibition of growth at 25 ppm (Colletotrichum acutatum) | pest or weed control at 25 ppm (Botrytis cinerea [2])
